Source: article PMC4836387 (ACS Chemical Biology, 2016)

Tests used:
HIV-1 IN = HIV-1 IN (Human immunodeficiency virus type 1 group M subtype B, UniProt P12497); test: in vitro IN assay, strand transfer; type: biochemical; settings: in vitro ST inhibitory IC50, text values
[1] = tested on: lentiviral vector carrying WT IN; test: single-round HIV-1 infectivity assay, WT IN; type: cell-based; settings: Human immunodeficiency virus 1, read-out: EC50 (WT IN)
[2] = tested on: HIV-1 vector carrying IN mutant Y143R; test: single-round HIV-1 infectivity assay, Y143R IN; type: cell-based; settings: for EC50: Human immunodeficiency virus 1, read-out: EC50 Y143R; for Fold-change (FC) in EC50 relative to WT, Y143R: in parentheses
[3] = tested on: HIV-1 vector carrying IN mutant N155H; test: single-round HIV-1 infectivity assay, N155H IN; type: cell-based; settings: for EC50: Human immunodeficiency virus 1, read-out: EC50 N155H; for Fold-change (FC) in EC50 relative to WT, N155H: in parentheses
[4] = tested on: HIV-1 vector carrying IN mutant G140S/Q148H; test: single-round HIV-1 infectivity assay, G140S/Q148H IN; type: cell-based; settings: for Fold-change (FC) in EC50 relative to WT, G140S/Q148H: in parentheses
[5] = tested on: HIV-1 vector carrying IN mutant G118R; test: single-round HIV-1 infectivity assay, G118R IN; type: cell-based; settings: for EC50: Human immunodeficiency virus 1, read-out: EC50 G118R; for Fold-change (FC) in EC50 relative to WT, G118R: in parentheses
[6] = tested on: HIV-1 vector carrying IN mutant R263K; test: single-round HIV-1 infectivity assay, R263K IN; type: cell-based; settings: for EC50: Human immunodeficiency virus 1, read-out: EC50 R263K; for Fold-change (FC) in EC50 relative to WT, R263K: in parentheses
[7] = tested on: HIV-1 vector carrying IN mutant T66I; test: single-round HIV-1 infectivity assay, T66I IN; type: cell-based; settings: for EC50: Human immunodeficiency virus 1, read-out: EC50 T66I; for Fold-change (FC) in EC50 relative to WT, T66I: in parentheses
[8] = tested on: HIV-1 vector carrying IN mutant E92Q; test: single-round HIV-1 infectivity assay, E92Q IN; type: cell-based; settings: for EC50: Human immunodeficiency virus 1, read-out: EC50 E92Q; for Fold-change (FC) in EC50 relative to WT, E92Q: in parentheses
[9] = tested on: HIV-1 vector carrying IN mutant H51Y; test: single-round HIV-1 infectivity assay, H51Y IN; type: cell-based; settings: for EC50: Human immunodeficiency virus 1, read-out: EC50 H51Y; for Fold-change (FC) in EC50 relative to WT, H51Y: in parentheses
[10] = tested on: HIV-1 vector carrying IN mutant H51Y/R263K; test: single-round HIV-1 infectivity assay, H51Y/R263K IN; type: cell-based; settings: for EC50: Human immunodeficiency virus 1, read-out: EC50 H51Y/R263K; for Fold-change (FC) in EC50 relative to WT, H51Y/R263K: in parentheses
in vitro = settings: human

Nc1c(C(=O)NCc2ccc(F)cc2F)c(=O)n(O)c2ncc(CCCO)cc12 [4b]
IC50 (HIV-1 IN): 11 nM | EC50 [1]: 3.1 ± 2 nM | EC50 [2]: 2.8 ± 0.9 nM | Fold-change (FC) in EC50 relative to WT, Y143R [2]: 0.90 | EC50 [3]: 8.5 ± 3.1 nM | Fold-change (FC) in EC50 relative to WT, N155H [3]: 2.7 | Fold-change (FC) in EC50 relative to WT, G140S/Q148H [4]: 4.3 | EC50 [5]: 10 ± 1.6 nM | Fold-change (FC) in EC50 relative to WT, G118R [5]: 3.2 | EC50 [6]: 2.5 ± 0.8 nM | Fold-change (FC) in EC50 relative to WT, R263K [6]: 0.81 | EC50 [7]: 1.1 ± 0.1 nM | Fold-change (FC) in EC50 relative to WT, T66I [7]: 0.35 | EC50 [8]: 4.8 ± 2 nM | Fold-change (FC) in EC50 relative to WT, E92Q [8]: 1.5 | EC50 [9]: 2.6 ± 0.5 nM | Fold-change (FC) in EC50 relative to WT, H51Y [9]: 0.84 | EC50 [10]: 15 ± 2 nM | Fold-change (FC) in EC50 relative to WT, H51Y/R263K [10]: 4.8 | CC50 (in vitro): > 250000 nM

Nc1c(C(=O)NCc2ccc(F)cc2F)c(=O)n(O)c2ncc(CCCCCO)cc12 [4c]
EC50 [1]: 1.3 ± 0.2 nM | EC50 [2]: 3 ± 0.5 nM | Fold-change (FC) in EC50 relative to WT, Y143R [2]: 2.3 | EC50 [3]: 2.4 ± 0.8 nM | Fold-change (FC) in EC50 relative to WT, N155H [3]: 1.8 | Fold-change (FC) in EC50 relative to WT, G140S/Q148H [4]: 5.3 | EC50 ([4]; read-out: EC50 G140S/Q148H, viral vector carrying IN mutations G140S/Q148H): 6.9 ± 2.3 nM | EC50 [5]: 5.3 ± 1.6 nM | Fold-change (FC) in EC50 relative to WT, G118R [5]: 4.1 | EC50 [6]: 2.6 ± 0.1 nM | Fold-change (FC) in EC50 relative to WT, R263K [6]: 2.0 | EC50 [7]: 0.93 ± 0.24 nM | Fold-change (FC) in EC50 relative to WT, T66I [7]: 0.72 | EC50 [8]: 3.8 ± 2.3 nM | EC50 [9]: 3.8 ± 0.6 nM | Fold-change (FC) in EC50 relative to WT, H51Y [9]: 2.9 | EC50 [10]: 2.6 ± 1.4 nM | Fold-change (FC) in EC50 relative to WT, H51Y/R263K [10]: 2.0 | CC50 (in vitro): > 250000 nM

Nc1c(C(=O)NCc2ccc(F)cc2F)c(=O)n(O)c2ncc(CCCCCCO)cc12 [4d]
EC50 [1]: 2.3 ± 0.6 nM | EC50 [2]: 2.1 ± 1.4 nM | Fold-change (FC) in EC50 relative to WT, Y143R [2]: 0.91 | EC50 [3]: 2.7 ± 1 nM | Fold-change (FC) in EC50 relative to WT, N155H [3]: 1.2 | Fold-change (FC) in EC50 relative to WT, G140S/Q148H [4]: 4.1 | EC50 [5]: 6.4 ± 2.5 nM | Fold-change (FC) in EC50 relative to WT, G118R [5]: 2.8 | EC50 [6]: 8.4 ± 2.3 nM | Fold-change (FC) in EC50 relative to WT, R263K [6]: 3.7 | EC50 [7]: 0.5 ± 0.35 nM | Fold-change (FC) in EC50 relative to WT, T66I [7]: 0.22 | EC50 [8]: 0.74 ± 0.13 nM | Fold-change (FC) in EC50 relative to WT, E92Q [8]: 0.32 | EC50 [9]: 1.6 ± 0.1 nM | Fold-change (FC) in EC50 relative to WT, H51Y [9]: 0.70 | EC50 [10]: 5.2 ± 1.6 nM | Fold-change (FC) in EC50 relative to WT, H51Y/R263K [10]: 2.3 | CC50 (in vitro): > 250000 nM

Nc1c(C(=O)NCc2ccc(F)cc2F)c(=O)n(O)c2ncc(CCCCCCCCO)cc12 [4e]
IC50 (HIV-1 IN): 5 nM | EC50 [1]: 3.7 ± 0.4 nM | EC50 [2]: 3.2 ± 0.8 nM | Fold-change (FC) in EC50 relative to WT, Y143R [2]: 0.86 | EC50 [3]: 6.5 ± 2.7 nM | Fold-change (FC) in EC50 relative to WT, N155H [3]: 1.8 | Fold-change (FC) in EC50 relative to WT, G140S/Q148H [4]: 2.1 | EC50 [5]: 11 ± 1 nM | Fold-change (FC) in EC50 relative to WT, G118R [5]: 3.0 | EC50 [6]: 3.8 ± 1.1 nM | Fold-change (FC) in EC50 relative to WT, R263K [6]: 1.0 | EC50 [7]: 1.7 ± 0.5 nM | Fold-change (FC) in EC50 relative to WT, T66I [7]: 0.46 | EC50 [8]: 2.6 ± 0.2 nM | Fold-change (FC) in EC50 relative to WT, E92Q [8]: 0.70 | EC50 [9]: 4.8 ± 1.1 nM | Fold-change (FC) in EC50 relative to WT, H51Y [9]: 1.3 | EC50 [10]: 22 ± 8 nM | Fold-change (FC) in EC50 relative to WT, H51Y/R263K [10]: 5.9 | CC50 (in vitro): > 250000 nM

Nc1c(C(=O)NCc2ccc(F)cc2F)c(=O)n(O)c2ncc(CCS(=O)(=O)c3ccccc3)cc12 [4f]
EC50 [1]: 2 ± 0.1 nM | EC50 [2]: 0.6 ± 0.1 nM | Fold-change (FC) in EC50 relative to WT, Y143R [2]: 0.3 | EC50 [3]: 2.1 ± 1.2 nM | Fold-change (FC) in EC50 relative to WT, N155H [3]: 1 | Fold-change (FC) in EC50 relative to WT, G140S/Q148H [4]: 3 | EC50 [5]: 11.4 ± 3.5 nM | Fold-change (FC) in EC50 relative to WT, G118R [5]: 6 | EC50 [6]: 5.3 ± 0.8 nM | Fold-change (FC) in EC50 relative to WT, R263K [6]: 2 | EC50 [7]: 0.7 ± 0.1 nM | Fold-change (FC) in EC50 relative to WT, T66I [7]: 0.3 | EC50 [8]: 1.2 ± 0.6 nM | Fold-change (FC) in EC50 relative to WT, E92Q [8]: 0.6 | EC50 [9]: 0.8 ± 0.5 nM | Fold-change (FC) in EC50 relative to WT, H51Y [9]: 0.4 | EC50 [10]: 5.3 ± 0.4 nM | Fold-change (FC) in EC50 relative to WT, H51Y/R263K [10]: 2 | CC50 (in vitro): > 250000 nM

Cc1nnc(C(=O)NC(C)(C)c2nc(C(=O)NCc3ccc(F)cc3)c(O)c(=O)n2C)o1 [compound 1, raltegravir, reference compound]
EC50 [7]: 2.8 ± 0.4 nM | EC50 [8]: 30 ± 10 nM | EC50 [9]: 3.4 ± 0.2 nM | EC50 [10]: 6 ± 2.3 nM

COc1cc2c(cc1Cc1cccc(Cl)c1F)c(=O)c(C(=O)O)cn2[C@H](CO)C(C)C [compound 2, elvitegravir, reference compound]
EC50 [1]: 6.4 ± 0.8 nM | EC50 [2]: 7.9 ± 2.3 nM | Fold-change (FC) in EC50 relative to WT, Y143R [2]: 1.2 | EC50 [3]: 90 ± 18 nM | Fold-change (FC) in EC50 relative to WT, N155H [3]: 14 | Fold-change (FC) in EC50 relative to WT, G140S/Q148H [4]: 891 | EC50 [5]: 21 ± 10 nM | Fold-change (FC) in EC50 relative to WT, G118R [5]: 3.3 | EC50 [6]: 10 ± 6 nM | Fold-change (FC) in EC50 relative to WT, R263K [6]: 1.6 | EC50 [7]: 66 ± 1 nM | Fold-change (FC) in EC50 relative to WT, T66I [7]: 10 | EC50 [8]: 154 ± 34 nM | Fold-change (FC) in EC50 relative to WT, E92Q [8]: 24 | EC50 [9]: 4.5 ± 2.1 nM | Fold-change (FC) in EC50 relative to WT, H51Y [9]: 0.7 | EC50 [10]: 53 ± 18 nM | Fold-change (FC) in EC50 relative to WT, H51Y/R263K [10]: 8 | CC50 (in vitro): > 250000 nM

C[C@@H]1CCO[C@H]2Cn3cc(C(=O)NCc4ccc(F)cc4F)c(=O)c(O)c3C(=O)N12 [compound 3, dolutegravir, reference compound]
EC50 [7]: 0.9 ± 0.8 nM | EC50 [8]: 2.3 ± 0.4 nM | EC50 [9]: 3.2 ± 0.2 nM | EC50 [10]: 16 ± 2 nM
